Assay results reported in patent US8119364B2, “Methods for generating analogs of coenzyme A” (The Regents of the University of California, priority 2005, dated 2012).
“Also recorded” adds a separate entry of the source. Like-named read-outs stand apart in the source and are kept apart here.

How the values were obtained:
E. coli PanK (CoAA) [1] = biological target: T1, E. coli PanK (CoAA) (Escherichia coli, UniProt P0A6I3); experiment: Kinetic assay of pantetheine analogs as substrates of PanK; assay type: biochemical; settings: for Km / kcat: compound as substrate of E. coli PanK; for Km, fold lower: compared with pantothenate
T1 sequence (P0A6I3 1-316): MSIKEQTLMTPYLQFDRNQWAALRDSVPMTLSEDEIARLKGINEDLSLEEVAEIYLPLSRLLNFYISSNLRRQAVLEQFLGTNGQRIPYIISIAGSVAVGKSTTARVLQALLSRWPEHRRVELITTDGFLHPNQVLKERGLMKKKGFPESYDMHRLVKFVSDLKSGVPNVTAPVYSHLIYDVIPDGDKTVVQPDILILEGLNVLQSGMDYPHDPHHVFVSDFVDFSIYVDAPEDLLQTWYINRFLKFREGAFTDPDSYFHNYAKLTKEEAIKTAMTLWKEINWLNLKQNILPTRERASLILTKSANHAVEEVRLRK
Experimental: As mentioned earlier, phosphorylation of the primary hydroxyl group of pantothenate by the first protein in the CoA biosynthesis pathway, PanK, is believed to be the rate limiting step in vivo. Jackowski and Rock, J. Bacteria 148:926, 1981. Due to its role as the gatekeeper of CoA biosynthesis, each of the new analogs was assayed for kinetic activity with PanK (Table 2).
The assay was performed as previously described using the prototypical bacterial PanK, CoAA from E. coli. Kumar and Aldrich, Org. Lett. 5:613, 2003. The reaction of CoAA with the natural substrate pantothenate gave values that conformed to those previously reported in the literature. Worthington and Burkart, Org. Biomol. Chem. 4:44, 2005; Strauss and Begley, J. Biol. Chem. 277:48205, 2002. […] Conversely, compounds with PEG linkers between the pantoic acid moiety and the bioorthogonal terminus were poor substrates for CoAA.

[2] = tested on: E. coli overexpressing the carrier protein VibB and the PPTase Sfp; experiment: In vivo uptake: carrier protein labeling in E. coli; assay type: cell-based; settings: 1 mM compound, 4 hours of growth, SDS-PAGE fluorescence or western blot
Experimental: (§1) (a) Analogs were assayed for gel shift after reaction with CoA biosynthesis enzymes (CoAA/D/E), PPTase (Sfp) and carrier protein (E. coli ACP). Conversion of apo-ACP to reporter modified crypto-ACP causes a change in the mobility of the protein on native PAGE. (b) In vitro modification of the carrier protein VibB by reaction with fluorescent pantetheine analogs, CoA biosynthesis enzymes (CoAA/D/E) and Sfp. (c) In vivo modification of carrier protein by incubation of fluorescent pantetheine analogs with E. coli overexpressing VibB and the PPTase Sfp. (d) In vitro modification of VibB by reaction with bioorthogonal pantetheine analogs, CoA biosynthesis enzymes (CoAA/D/E) and Sfp. Labeled carrier protein is visualized by chemoselective ligation to the appropriate biotin reporter (9-11) followed by SDS-PAGE, blotting onto nitrocellulose, and incubation with streptavidin-linked alkaline phosphatase. (e) In vivo modification of carrier protein by incubation of bioorthogonal pantetheine analogs with E. coli overexpressing VibB and the PPTase Sfp. Visualization as in (d).
(§2) The library of pantetheine analogs was tested for integration into the E. coli CoA pathway using an in vivo assay. Clarke et al., J. Am. Chem. Soc. 127:11234, 2005. E. coli overexpressing the carrier protein VibB and the PPTase Sfp were incubated with 1 mM of each compound in 1 ml of culture. After 4 hours of growth cells were pelleted, washed, and lysed. Lysate from these cultures was run on SDS-PAGE gels and detection carried out as described for the in vitro studies. […] To verify the results of the gels and blots, samples of crude lysate were assayed by MALDI-MS (FIG. 11). For MALDI-MS analysis doubly transformed E. coli containing plasmids for the carrier protein Fren and the PPTase Sfp were used.

[3] = tested on: CoA biosynthesis enzymes (CoAA/D/E), PPTase (Sfp) and carrier protein (E. coli ACP); settings: native PAGE
Experimental: Virga et al., Bioorg. Med. Chem. 14:1007, 2006. […] Clarke et al., J. Am. Chem. Soc. 127:11234, 2005.
as §1

[4] = tested on: CoA biosynthetic enzymes (CoAA/D/E), PPTase Sfp and apo-ACP; settings: MALDI-MS, in vitro
Source text: To confirm the results from this assay, the reaction mixtures were subjected to matrix-assisted laser desorption/ionization mass spectrometry (MALDI-MS). […] Compound 13 was reacted with the CoAA biosynthesis enzymes, ACP, and Sfp as described above and the reaction mix analyzed by MALDI without further purification.
Apo-ACP (a) is reacted with pantetheine analogs, CoA biosynthetic enzymes (CoAA/D/E) and the PPTase Sfp.

E. coli PanK (CoAA) [5] = biological target: T1, E. coli PanK (CoAA); settings: natural pantetheine, from reference 14, cited from earlier work
[6] = tested on: E. coli containing plasmids for the carrier protein Fren and the PPTase Sfp; experiment: MALDI-MS of crude lysate after in vivo labeling; assay type: cell-based
Experimental: as §2

CoAA = CoAA (Escherichia coli, UniProt P0A6I3); settings: pantothenate as substrate
Source text: To isolate and investigate the effect of H-bond accepting heteroatoms in the linker region, pantetheine analogs 15 and 16 were synthesized. […] Virga et al., Bioorg. Med. Chem. 14:1007, 2006. […] To test if these compounds were acting as inhibitors of CoAA, a competitive kinetic assay was set up using pantotenate as the substrate. […] Ivey et al., J. Biol. Chem. 279:35622, 2004. Investigation of these compounds as potential inhibitor scaffolds is ongoing.

[7] = compound 3 (β-Ala linkage) versus compound 1

Row | SMILES | substrate suitability for CoAA/PanK (in words) (E. coli PanK (CoAA) [1]) | Km (E. coli PanK (CoAA) [1]) [µM] | kcat (E. coli PanK (CoAA) [1]) [s⁻¹] | modification of VibB in vivo (detectability) [2] | Km compared with natural substrate pantothenate (fold higher) (E. coli PanK (CoAA) [1]) | turnover compared with the natural substrate (in words) (E. coli PanK (CoAA) [1]) | other results
1 | CC(C)(CO)[C@@H](O)C(=O)NCCC(=O)NCCN=[N+]=[N-] [Compound 3] | kcat and Km values closely approaching those of the natural substrate | 43.5 ± 1.99 | 0.46695 ± 0.007 | detectable modification of VibB in vivo; also recorded: biodetectible in E. coli |  |  | increase in Km (E. coli PanK (CoAA) [1]; [7]): 10 fold; increase in catalytic efficiency (E. coli PanK (CoAA) [1]; [7]): ~20 fold
2 | CN(C)c1cccc2c(S(=O)(=O)NCCNC(=O)CCNC(=O)[C@H](O)C(C)(C)CO)cccc12 [Compound 14] | processed particularly efficiently by PanK | 27.3 ± 3.28 | 0.2877 ± 0.0103 |  | the same as | near equal | 
3 | CC(C)(CO)[C@@H](O)C(=O)NCCN=[N+]=[N-] [Compound 1] |  | 692 ± 89.1 | 0.3722 ± 0.0257 |  | 20 fold | turnover within the range of the natural substrate | 
4 | CN(C)c1ccc2c(CC(=O)NCCNC(=O)[C@H](O)C(C)(C)CO)cc(=O)oc2c1 [Compound 12] | lower turnover and catalytic efficiency than analogs containing the natural β-Ala/pantoic acid linkage; also recorded: good binding but slow turnover | 37.2 ± 5.82 | 0.1927 ± 0.0095 | detectable modification of VibB in vivo; also recorded: biodetectible in E. coli |  |  | 
5 | CN(C)c1ccc2c(CC(=O)NCCOCCCNC(=O)[C@H](O)C(C)(C)CO)cc(=O)oc2c1 [Compound 16] | extremely poor substrates; also recorded: losing almost all substrate activity | 0.14 ± 0.18 | 0.0167 ± 0.0005 |  |  |  | Km, fold lower (E. coli PanK (CoAA) [1]): 100 fold
6 | CC(C)(CO)[C@@H](O)C(=O)NCCOCCOCCNC(=O)CCN=[N+]=[N-] [Compound 7] | viable substrates | 53.8 ± 11.2 | 0.103 ± 0.00733 |  | two-fold higher |  | 
7 | C#CCNC(=O)CCNC(=O)[C@H](O)C(C)(C)CO [Compound 2] | kcat and Km values closely approaching those of the natural substrate | 32.9 ± 2.54 | 0.5242 ± 0.0125 | detectable modification of VibB in vivo; also recorded: biodetectible in E. coli |  |  | 
8 | CN(C)c1ccc2c(CC(=O)NCCOCCOCCOCCOCCOCCOCCOCCOCCOCCOCCNC(=O)[C@H](O)C(C)(C)CO)cc(=O)oc2c1 [Compound 18] | such poor substrates that kinetic data could not be generated |  |  |  |  |  | change in mobility / conversion of apo-ACP to crypto-ACP [3]: multiple bands on the gel that suggest apo-protein remains
9 | CC(=O)CCC(=O)NCCNC(=O)CCNC(=O)[C@H](O)C(C)(C)CO [Compound 4] |  | 62.6 ± 3.89 | 0.344 ± 0.0075 | detectable, but showed much weaker labeling; also recorded: biodetectible in E. coli | two fold higher | near equal | 
10 | CC(=O)CCC(=O)NCCOCCOCCNC(=O)[C@H](O)C(C)(C)CO [Compound 6] | markedly decreased kinetic activity | 0.196 ± 0.09 | 0.0267 ± 0.001 |  |  |  | 
11 | CC(C)(CO)[C@@H](O)C(=O)NCCOCCOCCOCCOCCOCCOCCOCCOCCOCCOCCN=[N+]=[N-] [Compound 8] | such poor substrates that kinetic data could not be generated |  |  |  |  |  | change in mobility / conversion of apo-ACP to crypto-ACP [3]: multiple bands on the gel that suggest apo-protein remains; conversion to CoA analog and transfer onto carrier protein ACP [4]: significantly incomplete
12 | CN(C)c1ccc2c(CC(=O)NCCOCCOCCNC(=O)[C@H](O)C(C)(C)CO)cc(=O)oc2c1 [Compound 17] | viable substrates | 51.2 ± 6.42 | 0.1677 ± 0.00717 |  | two-fold higher |  | conversion to CoA analog and transfer onto carrier protein ACP [4]: converted to CoA analogs and modify ACP
13 | CC(C)(CO)[C@@H](O)C(=O)NCCC(=O)NCCS [Pantetheine] |  |  |  |  |  |  | Km (E. coli PanK (CoAA) [5]): 91 ± 10 µM; kcat (E. coli PanK (CoAA) [5]): 0.32 ± 0.0017 s⁻¹; kcat (E. coli PanK (CoAA) [5]; listed as pantetheine): 0.525 s⁻¹
14 | CN(C)c1ccc2c(CC(=O)NCCCCCCNC(=O)CCNC(=O)[C@H](O)C(C)(C)CO)cc(=O)oc2c1 [Compound 13] | processed particularly efficiently by PanK | 28.4 ± 6.92 | 0.3193 ± 0.0235 | detectable modification of VibB in vivo; also recorded: biodetectible in E. coli | the same as | near equal | conversion to CoA analog and transfer onto carrier protein ACP [4]: converted to CoA analogs and modify ACP; in vivo uptake and attachment onto Fren [6]: taken up by the cell, processed into a CoA analog and attached onto Fren
15 | CC(C)(CO)[C@@H](O)C(=O)NCCC(=O)NCCNC(=O)CCN=[N+]=[N-] [Compound 5] | processed particularly efficiently by PanK | 71.9 ± 6.98 | 0.6818 ± 0.0187 | detectable modification of VibB in vivo; also recorded: biodetectible in E. coli | two fold higher | exceeding | 
16 | CN(C)c1ccc2c(CC(=O)NCCCOCCNC(=O)[C@H](O)C(C)(C)CO)cc(=O)oc2c1 [Compound 15] | extremely poor substrates; also recorded: losing almost all substrate activity | 0.76 ± 0.32 | 0.0227 ± 0.00083 |  |  |  | mode of inhibition of CoAA (CoAA): non-competitive inhibitor; Km, fold lower (E. coli PanK (CoAA) [1]): 100 fold
